Assays:
[1] = system: Puccinia recondita f. sp. tritici; assay: Fungicidal activity against Puccinia recondita f. sp. tritici / wheat / leaf disc preventative (brown rust); type: in vivo; details: foliar, 200 ppm in the applied formulation, wheat leaf segments cv. Kanzler, preventative (inoculated 1 day after application), assessed 7 to 9 days after application, read-out: disease control compared to untreated control leaf disks
Description: (§1) Leaf disks or leaf segments of various plant species are cut from plants grown in a greenhouse. The cut leaf disks or segments are placed in multiwell plates (24-well format) onto water agar. The leaf disks are sprayed with a test solution before (preventative) or after (curative) inoculation. Compounds to be tested are prepared as DMSO solutions (max. 10 mg/ml) which are diluted to the appropriate concentration with 0.025% Tween20 just before spraying. The inoculated leaf disks or segments are incubated under defined conditions (temperature, relative humidity, light, etc.) according to the respective test system. A single evaluation of disease level is carried out 3 to 14 days after inoculation, depending on the pathosystem. Percent disease control relative to the untreated check leaf disks or segments is then calculated. General Examples of Liquid Culture Tests in Well Plates:
Example 1: Fungicidal Activity Against Puccinia recondita f. sp. tritici/Wheat/Leaf Disc Preventative (Brown Rust)
Wheat leaf segments cv. Kanzler were placed on agar in multiwell plates (24-well format) and sprayed with the formulated test compound diluted in water. The leaf disks were inoculated with a spore suspension of the fungus 1 day after application. The inoculated leaf segments were incubated at 19C and 75% relative humidity (rh) under a light regime of 12 hours light/12 hours darkness in a climate cabinet and the activity of a compound was assessed as percent disease control compared to untreated when an appropriate level of disease damage appears in untreated check leaf segments (7 to 9 days after application).
(§2) The following compounds at 200 ppm in the applied formulation give at least 80% disease control in this test when compared to untreated control leaf disks under the same conditions, which show extensive disease development.

[2] = system: Puccinia recondita f. sp. tritici; assay: Fungicidal activity against Puccinia recondita f. sp. tritici / wheat / leaf disc curative (brown rust); type: in vivo; details: foliar, 200 ppm in the applied formulation, wheat leaf segments cv. Kanzler, curative (applied 1 day after inoculation), assessed 6 to 8 days after application, read-out: disease control compared to untreated control leaf disks
Description: as §1
Example 2: Fungicidal Activity Against Puccinia recondita f. sp. Tritici/Wheat/Leaf Disc Curative (Brown Rust)
Wheat leaf segments cv. Kanzler are placed on agar in multiwell plates (24-well format). The leaf segments are then inoculated with a spore suspension of the fungus. Plates were stored in darkness at 19° C. and 75% relative humidity. The formulated test compound diluted in water was applied 1 day after inoculation. The leaf segments were incubated at 19° C. and 75% relative humidity under a light regime of 12 hours light/12 hours darkness in a climate cabinet and the activity of a compound was assessed as percent disease control compared to untreated when an appropriate level of disease damage appears in untreated check leaf segments (6 to 8 days after application).
as §2

[3] = system: Phakopsora pachyrhizi; assay: Fungicidal activity against Phakopsora pachyrhizi / soybean / leaf disc preventative (Asian soybean rust); type: in vivo; details: foliar, 200 ppm in the applied formulation, soybean leaf disks, preventative (inoculated one day after application), assessed 12 to 14 days after application, read-out: disease control compared to untreated control leaf disks
Description: as §1
Example 3: Fungicidal Activity Against Phakopsora pachyrhizi/Soybean/Leaf Disc Preventative (Asian Soybean Rust)
Soybean leaf disks are placed on water agar in multiwell plates (24-well format) and sprayed with the formulated test compound diluted in water. One day after application leaf discs are inoculated by spraying a spore suspension on the lower leaf surface. After an incubation period in a climate cabinet of 24-36 hours in darkness at 20° C. and 75% rh leaf disc are kept at 20° C. with 12 h light/day and 75% rh. The activity of a compound is assessed as percent disease control compared to untreated when an appropriate level of disease damage appears in untreated check leaf disks (12 to 14 days after application).
as §2

[4] = system: Glomerella laqenarium (Colletotrichum lagenarium); assay: Fungicidal activity against Glomerella lagenarium (Colletotrichum lagenarium) liquid culture / cucumber / preventative (anthracnose); type: cell-based; details: Colletotrichum orbiculare; 20 ppm in the applied formulation; liquid culture in PDB, 24° C., 3 to 4 days after application; read-out: disease control compared to untreated control (inhibition of growth measured photometrically)
Description: Mycelia fragments or conidia suspensions of a fungus prepared either freshly from liquid cultures of the fungus or from cryogenic storage, are directly mixed into nutrient broth. DMSO solutions of the test compound (max. 10 mg/ml) are diluted with 0.025% Tween20 by a factor of 50 and 10 μl of this solution is pipetted into a microtiter plate (96-well format). The nutrient broth containing the fungal spores/mycelia fragments is then added to give an end concentration of the tested compound. The test plates are incubated in the dark at 24° C. and 96% relative humidity. The inhibition of fungal growth is determined photometrically after 2 to 7 days, depending on the pathosystem, and percent antifungal activity relative to the untreated check is calculated.
Example 4: Fungicidal Activity Against Glomerella laqenarium (Colletotrichum lagenarium) Liquid Culture/Cucumber/Preventative (Anthracnose)
Conidia of the fungus from cryogenic storage are directly mixed into nutrient broth (PDB—potato dextrose broth). After placing a (DMSO) solution of test compound into a microtiter plate (96-well format), the nutrient broth containing the fungal spores is added. The test plates are incubated at 24° C. and the inhibition of growth is measured photometrically 3 to 4 days after application.
The following compounds at 20 ppm in the applied formulation give at least 80% disease control in this test when compared to untreated control under the same conditions, which show extensive disease development.

C=C(C)CN(CC)C(=O)c1ccc(-c2noc(C(F)(F)F)n2)cc1F [Compound 3b.33, N-ethyl-2-fluoro-N-(2-methylallyl)-4-[5-(trifluoromethyl)-1,2,4-oxadiazol-3-yl]benzamide]
≥ 80%: pest or weed control at 200 ppm [1] | pest or weed control at 200 ppm [2] | pest or weed control at 200 ppm [3] | inhibition at 20 ppm [4]

O=C(NCC1CC1)c1ccc(-c2noc(C(F)(F)F)n2)cc1Cl [Compound 2b.13, 2-chloro-N-(cyclopropyl-methyl)-4-[5-(trifluoromethyl)-1,2,4-oxadiazol-3-yl]benzamide]
≥ 80%: pest or weed control at 200 ppm [1] | pest or weed control at 200 ppm [2] | pest or weed control at 200 ppm [3] | inhibition at 20 ppm [4]

CCOC(C)CNC(=O)c1ccc(-c2noc(C(F)(F)F)n2)cc1F (centres unmarked) [Compound 3b.12, N-(2-ethoxypropyl)-2-fluoro-4-[5-(trifluoromethyl)-1,2,4-oxadiazol-3-yl]benzamide]
≥ 80%: pest or weed control at 200 ppm [1] | pest or weed control at 200 ppm [2] | pest or weed control at 200 ppm [3] | inhibition at 20 ppm [4]

CCN(CC)C(=O)c1ccc(-c2noc(C(F)(F)F)n2)cc1F [Compound 3b.32, N,N-diethyl-2-fluoro-4-[5-(trifluoromethyl)-1,2,4-oxadiazol-3-yl]benzamide]
≥ 80%: pest or weed control at 200 ppm [1] | pest or weed control at 200 ppm [2] | pest or weed control at 200 ppm [3] | inhibition at 20 ppm [4]

CCC(COC)NC(=O)c1ccc(-c2noc(C(F)(F)F)n2)cc1F (centres unmarked) [Compound 3b.11, 2-fluoro-N-[1-(methoxymethyl)propyl]-4-[5-(trifluoromethyl)-1,2,4-oxadiazol-3-yl]benzamide]
≥ 80%: pest or weed control at 200 ppm [1] | pest or weed control at 200 ppm [2] | pest or weed control at 200 ppm [3] | inhibition at 20 ppm [4]

CCC(O)CNC(=O)c1ccc(-c2noc(C(F)(F)F)n2)cc1 (centres unmarked) [Compound 3a.14, N-(2-hydroxybutyl)-4-[5-(trifluoromethyl)-1,2,4-oxadiazol-3-yl]benzamide]
≥ 80%: pest or weed control at 200 ppm [1] | pest or weed control at 200 ppm [2] | pest or weed control at 200 ppm [3] | inhibition at 20 ppm [4]

C#CCN(C)C(=O)c1ccc(-c2noc(C(F)(F)F)n2)cc1F [Compound 3b.44, 2-fluoro-N-methyl-N-prop-2-ynyl-4-[5-(trifluoromethyl)-1,2,4-oxadiazol-3-yl]benzamide]
≥ 80%: pest or weed control at 200 ppm [1] | pest or weed control at 200 ppm [2] | pest or weed control at 200 ppm [3] | inhibition at 20 ppm [4]

O=C(NCCCCCl)c1ccc(-c2noc(C(F)(F)F)n2)cc1 [Compound 3a.20, N-(4-chlorobutyl)-4-[5-(trifluoromethyl)-1,2,4-oxadiazol-3-yl]benzamide]
≥ 80%: pest or weed control at 200 ppm [1] | pest or weed control at 200 ppm [2] | pest or weed control at 200 ppm [3] | inhibition at 20 ppm [4]

CCCCN(C)C(=O)c1ccc(-c2noc(C(F)(F)F)n2)cc1F [Compound 3b.38, N-butyl-2-fluoro-N-methyl-4-[5-(trifluoromethyl)-1,2,4-oxadiazol-3-yl]benzamide]
≥ 80%: pest or weed control at 200 ppm [1] | pest or weed control at 200 ppm [2] | pest or weed control at 200 ppm [3] | inhibition at 20 ppm [4]

CC(C)CN(C)C(=O)c1ccc(-c2noc(C(F)(F)F)n2)cc1F [Compound 3b.14, 2-fluoro-N-isobutyl-N-methyl-4-[5-(trifluoromethyl)-1,2,4-oxadiazol-3-yl]benzamide]
≥ 80%: pest or weed control at 200 ppm [1] | pest or weed control at 200 ppm [2] | pest or weed control at 200 ppm [3] | inhibition at 20 ppm [4]

CCCCN(C)C(=O)c1ccc(-c2noc(C(F)(F)F)n2)cc1 [Compound 3a.36, N-butyl-N-methyl-4-[5-(trifluoromethyl)-1,2,4-oxadiazol-3-yl]benzamide]
≥ 80%: pest or weed control at 200 ppm [1] | pest or weed control at 200 ppm [2] | pest or weed control at 200 ppm [3] | inhibition at 20 ppm [4]

CCC(C)NC(=O)c1ccc(-c2noc(C(F)(F)F)n2)cc1F (centres unmarked) [Compound 3b.10, 2-fluoro-N-sec-butyl-4-[5-(trifluoromethyl)-1,2,4-oxadiazol-3-yl]benzamide]
≥ 80%: pest or weed control at 200 ppm [1] | pest or weed control at 200 ppm [2] | pest or weed control at 200 ppm [3] | inhibition at 20 ppm [4]

CC(C)N(C)C(=O)c1ccc(-c2noc(C(F)(F)F)n2)cc1F [Compound 3b.36, 2-fluoro-N-isopropyl-N-methyl-4-[5-(trifluoromethyl)-1,2,4-oxadiazol-3-yl]benzamide]
≥ 80%: pest or weed control at 200 ppm [1] | pest or weed control at 200 ppm [2] | pest or weed control at 200 ppm [3] | inhibition at 20 ppm [4]

C=CCN(CC)C(=O)c1ccc(-c2noc(C(F)(F)F)n2)cc1 [Compound 3a.28, N-allyl-N-ethyl-4-[5-(trifluoromethyl)-1,2,4-oxadiazol-3-yl]benzamide]
≥ 80%: pest or weed control at 200 ppm [1] | pest or weed control at 200 ppm [2] | pest or weed control at 200 ppm [3] | inhibition at 20 ppm [4]

CCOCCCNC(=O)c1ccc(-c2noc(C(F)(F)F)n2)cc1 [Compound 3a.22, N-(3-ethoxypropyl)-4-[5-(trifluoromethyl)-1,2,4-oxadiazol-3-yl]benzamide]
≥ 80%: pest or weed control at 200 ppm [1] | pest or weed control at 200 ppm [2] | pest or weed control at 200 ppm [3] | inhibition at 20 ppm [4]

CCN(CC)C(=O)c1ccc(-c2noc(C(F)(F)F)n2)cc1 [Compound 3a.30, N,N-diethyl-4-[5-(trifluoromethyl)-1,2,4-oxadiazol-3-yl]benzamide]
≥ 80%: pest or weed control at 200 ppm [1] | pest or weed control at 200 ppm [2] | pest or weed control at 200 ppm [3] | inhibition at 20 ppm [4]

CCC(C)NC(=O)c1ccc(-c2noc(C(F)(F)F)n2)cc1 (centres unmarked) [Compound 3a.7, N-sec-butyl-4-[5-(trifluoromethyl)-1,2,4-oxadiazol-3-yl]benzamide]
≥ 80%: pest or weed control at 200 ppm [1] | pest or weed control at 200 ppm [2] | pest or weed control at 200 ppm [3] | inhibition at 20 ppm [4]
